Reference: patent publication US4281121A, “1,3,4-Thiadiazole-2-carboxylic acid derivatives, process for making the same and fungicidal and nematocidal compositions containing same” (Schering Aktiengesellschaft, priority 1978, dated 1981)

System: Plasmopara viticola
Assay: Prophylactic leaf treatment of grapevines in the hothouse against Plasmopara viticola
Type: in vivo
Conditions: concentration of active agent 0.001 (unit not given)
Procedure, shortened: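 Grapevines (5–8 leaves) sprayed to runoff with compound as 20% spray powder, then after drying inoculated on leaf undersides with sporangial suspension (~20,000/ml). Incubated at 22–24 °C, saturated humidity, 3–4 days normal humidity (30–70%), then one day saturated; activity from mean % infested leaf area per treatment.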

| SMILES | % activity |
| --- | --- |
| CCS(=O)(=O)c1nnc(C(=O)N2CCCC2)s1 [5-ethylsulfonyl-1,3,4-thiadiazole-2-carboxylic acid-N,N-tetramethylene-amide] | 91% |
| CCCCNC(=O)c1nnc(S(C)(=O)=O)s1 [5-methylsulfonyl-1,3,4-thiadiazole-2-carboxylic acid-butylamide] | 83% |
| CCCCCCNC(=O)c1nnc([S+]([O-])CCC)s1 (centres unmarked) [5-propylsulfinyl-1,3,4-thiadiazole-2-carboxylic acid-hexylamide] | 95% |
| CCC[S+]([O-])c1nnc(C(=O)NC(C)CC)s1 (centres unmarked) [5-propylsulfinyl-1,3,4-thiadiazole-2-carboxylic acid-sec.-butylamide] | 86% |

Same assay, conditions: concentration of active agent 0.005 (unit not given)

| SMILES | % activity |
| --- | --- |
| CCS(=O)(=O)c1nnc(C(=O)N2CCCC2)s1 [5-ethylsulfonyl-1,3,4-thiadiazole-2-carboxylic acid-N,N-tetramethylene-amide] | 99% |
| CCCCNC(=O)c1nnc(S(C)(=O)=O)s1 [5-methylsulfonyl-1,3,4-thiadiazole-2-carboxylic acid-butylamide] | 99.1% |
| CCCCCCNC(=O)c1nnc([S+]([O-])CCC)s1 (centres unmarked) [5-propylsulfinyl-1,3,4-thiadiazole-2-carboxylic acid-hexylamide] | 99.1% |
| CCC[S+]([O-])c1nnc(C(=O)NC(C)CC)s1 (centres unmarked) [5-propylsulfinyl-1,3,4-thiadiazole-2-carboxylic acid-sec.-butylamide] | 92% |

Same assay, conditions: concentration of active agent 0.025 (unit not given)

| SMILES | % activity |
| --- | --- |
| CCS(=O)(=O)c1nnc(C(=O)N2CCCC2)s1 [5-ethylsulfonyl-1,3,4-thiadiazole-2-carboxylic acid-N,N-tetramethylene-amide] | 100% |
| CCCCCCNC(=O)c1nnc([S+]([O-])CCC)s1 (centres unmarked) [5-propylsulfinyl-1,3,4-thiadiazole-2-carboxylic acid-hexylamide] | 100% |
| CCC[S+]([O-])c1nnc(C(=O)NC(C)CC)s1 (centres unmarked) [5-propylsulfinyl-1,3,4-thiadiazole-2-carboxylic acid-sec.-butylamide] | 92% |

System: Venturia inaequalis
Assay: Prophylactic leaf treatment of apples in open field test against Venturia inaequalis
Type: in vivo
Conditions: concentration of active agent 0.005 (in gram); 3 weeks

| SMILES | % activity |
| --- | --- |
| CCCCNC(=O)c1nnc(S(C)(=O)=O)s1 [5-methylsulfonyl-1,3,4-thiadiazole-2-carboxylic acid-butylamide] | 94% |

Same assay, conditions: concentration of active agent 0.025 (in gram); 3 weeks

| SMILES | % activity |
| --- | --- |
| CCCCNC(=O)c1nnc(S(C)(=O)=O)s1 [5-methylsulfonyl-1,3,4-thiadiazole-2-carboxylic acid-butylamide] | 99% |

System: Helminthosporium gram
Assay: not given
Conditions: 10 g active agent per 100 kg; about 5 weeks

| SMILES | % activity |
| --- | --- |
| CCS(=O)(=O)c1nnc(C(=O)N2CCCC2)s1 [5-ethylsulfonyl-1,3,4-thiadiazole-2-carboxylic acid-N,N-tetramethylene-amide] | 98% |

Same assay, conditions: 20 g active agent per 100 kg; about 5 weeks

| SMILES | % activity |
| --- | --- |
| CCS(=O)(=O)c1nnc(C(=O)N2CCCC2)s1 [5-ethylsulfonyl-1,3,4-thiadiazole-2-carboxylic acid-N,N-tetramethylene-amide] | 100% |

Same assay, conditions: 50 g active agent per 100 kg; about 5 weeks

| SMILES | % activity |
| --- | --- |
| CCS(=O)(=O)c1nnc(C(=O)N2CCCC2)s1 [5-ethylsulfonyl-1,3,4-thiadiazole-2-carboxylic acid-N,N-tetramethylene-amide] | 99% |
| CCCCNC(=O)c1nnc(S(C)(=O)=O)s1 [5-methylsulfonyl-1,3,4-thiadiazole-2-carboxylic acid-butylamide] | 90% |
| CCC[S+]([O-])c1nnc(C(=O)NC(C)CC)s1 (centres unmarked) [5-propylsulfinyl-1,3,4-thiadiazole-2-carboxylic acid-sec.-butylamide] | 94% |

System: Piricularia oryzae
Assay: not given
Type: in vivo
Conditions: concentration of active agent 0.1 (percentages); 5 days

| SMILES | % activity |
| --- | --- |
| CCCCNC(=O)c1nnc(S(C)(=O)=O)s1 [5-methylsulfonyl-1,3,4-thiadiazole-2-carboxylic acid-butylamide] | 90% |

System: Helminthosporium gramineum
Assay: Seed treatment in open field tests for infestation by Helminthosporium gramineum (barley)
Type: in vivo
Conditions: summer barley; 50 g active agent/100 kg barley; about 3 months
Description: Seed treatment in open field tests for infestation by Helminthosporium gramineum
The active agents were used in the form of pulverulent compositions. After about 8 months in case of winter barley and after about 3 months in case of summer barley the infested plants were counted and the activity was calculated by the formula [formula]

| SMILES | % activity |
| --- | --- |
| CCS(=O)(=O)c1nnc(C(=O)N2CCCC2)s1 [5-ethylsulfonyl-1,3,4-thiadiazole-2-carboxylic acid-N,N-tetramethylene-amide] | 100% |
| CCCCNC(=O)c1nnc(S(C)(=O)=O)s1 [5-methylsulfonyl-1,3,4-thiadiazole-2-carboxylic acid-butylamide] | 99.3% |

System: Fusarium avenaceum
Assay: Threshold concentration test in case of Fusarium avenaceum (infested soil, garden peas)
Type: in vivo
Conditions: 25 mg/l soil; 20 grains per dish; 18 days at 20-24° C.
Procedure, shortened: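 Soil heavily infested with Fusarium avenaceum was mixed uniformly with a 20% powder formulation of active agent, then sown immediately with 20 garden pea seeds ('Wunder von Kelvedon') per dish. After 18 days in a greenhouse at 20° to 24° C., sound plants were counted and roots scored on a 1–4 scale.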

| SMILES | number of sound peas |
| --- | --- |
| CCC[S+]([O-])c1nnc(C(=O)NC(C)CC)s1 (centres unmarked) [5-propylsulfinyl-1,3,4-thiadiazole-2-carboxylic acid-sec.-butylamide] | 9 |

Same assay, conditions: 25 mg/l soil; 18 days

| SMILES | root evaluation (1-4) |
| --- | --- |
| CCC[S+]([O-])c1nnc(C(=O)NC(C)CC)s1 (centres unmarked) [5-propylsulfinyl-1,3,4-thiadiazole-2-carboxylic acid-sec.-butylamide] | 1 |

Same assay, conditions: 50 mg/l soil; 20 grains per dish; 18 days at 20-24° C.

| SMILES | number of sound peas |
| --- | --- |
| CCC[S+]([O-])c1nnc(C(=O)NC(C)CC)s1 (centres unmarked) [5-propylsulfinyl-1,3,4-thiadiazole-2-carboxylic acid-sec.-butylamide] | 17 |

Same assay, conditions: 50 mg/l soil; 18 days

| SMILES | root evaluation (1-4) |
| --- | --- |
| CCC[S+]([O-])c1nnc(C(=O)NC(C)CC)s1 (centres unmarked) [5-propylsulfinyl-1,3,4-thiadiazole-2-carboxylic acid-sec.-butylamide] | 4 |

Same assay, conditions: 100 mg/l soil; 20 grains per dish; 18 days at 20-24° C.

| SMILES | number of sound peas |
| --- | --- |
| CCC[S+]([O-])c1nnc(C(=O)NC(C)CC)s1 (centres unmarked) [5-propylsulfinyl-1,3,4-thiadiazole-2-carboxylic acid-sec.-butylamide] | 17 |

Same assay, conditions: 100 mg/l soil; 18 days

| SMILES | root evaluation (1-4) |
| --- | --- |
| CCC[S+]([O-])c1nnc(C(=O)NC(C)CC)s1 (centres unmarked) [5-propylsulfinyl-1,3,4-thiadiazole-2-carboxylic acid-sec.-butylamide] | 4 |

System: Pythium ultimum
Assay: Threshold concentration test for use of the compounds against Pythium ultimum (infested soil, garden peas)
Type: in vivo
Parameters: key to root evaluation (1-4): 4: white roots without fungous necrosis; 3: white roots, minor fungous necrosis; 2: brown roots, already more pronounced fungous necrosis; 1: heavy fungous necrosis, roots rotted
Conditions: 20 mg/l soil; 3 weeks
Procedure, shortened: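 Pulverulent agents at 20% concentration mixed evenly into soil heavily infested with Pythium ultimum, then garden peas ('Wunder von Kelvedon', 20 per dish) sown at once. After three weeks at 20–24 °C in a hothouse, sound peas counted and roots scored on a 1–4 scale.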

| SMILES | root evaluation (1-4) |
| --- | --- |
| CCS(=O)(=O)c1nnc(C(=O)N2CCCC2)s1 [5-ethylsulfonyl-1,3,4-thiadiazole-2-carboxylic acid-N,N-tetramethylene-amide] | 2 |
| CCCCNC(=O)c1nnc(S(C)(=O)=O)s1 [5-methylsulfonyl-1,3,4-thiadiazole-2-carboxylic acid-butylamide] | 2 |

Same assay, conditions: 20 mg/l soil; 20 grains per dish; 3 weeks at 20-24° C.

| SMILES | number of sound peas |
| --- | --- |
| CCS(=O)(=O)c1nnc(C(=O)N2CCCC2)s1 [5-ethylsulfonyl-1,3,4-thiadiazole-2-carboxylic acid-N,N-tetramethylene-amide] | 14 |
| CCCCNC(=O)c1nnc(S(C)(=O)=O)s1 [5-methylsulfonyl-1,3,4-thiadiazole-2-carboxylic acid-butylamide] | 14 |

Same assay, conditions: 40 mg/l soil; 3 weeks

| SMILES | root evaluation (1-4) |
| --- | --- |
| CCS(=O)(=O)c1nnc(C(=O)N2CCCC2)s1 [5-ethylsulfonyl-1,3,4-thiadiazole-2-carboxylic acid-N,N-tetramethylene-amide] | 4 |
| CCCCNC(=O)c1nnc(S(C)(=O)=O)s1 [5-methylsulfonyl-1,3,4-thiadiazole-2-carboxylic acid-butylamide] | 4 |

Same assay, conditions: 40 mg/l soil; 20 grains per dish; 3 weeks at 20-24° C.

| SMILES | number of sound peas |
| --- | --- |
| CCS(=O)(=O)c1nnc(C(=O)N2CCCC2)s1 [5-ethylsulfonyl-1,3,4-thiadiazole-2-carboxylic acid-N,N-tetramethylene-amide] | 20 |
| CCCCNC(=O)c1nnc(S(C)(=O)=O)s1 [5-methylsulfonyl-1,3,4-thiadiazole-2-carboxylic acid-butylamide] | 15 |

Same assay, conditions: 80 mg/l soil; 3 weeks

| SMILES | root evaluation (1-4) |
| --- | --- |
| CCS(=O)(=O)c1nnc(C(=O)N2CCCC2)s1 [5-ethylsulfonyl-1,3,4-thiadiazole-2-carboxylic acid-N,N-tetramethylene-amide] | 4 |
| CCCCNC(=O)c1nnc(S(C)(=O)=O)s1 [5-methylsulfonyl-1,3,4-thiadiazole-2-carboxylic acid-butylamide] | 4 |

Same assay, conditions: 80 mg/l soil; 20 grains per dish; 3 weeks at 20-24° C.

| SMILES | number of sound peas |
| --- | --- |
| CCS(=O)(=O)c1nnc(C(=O)N2CCCC2)s1 [5-ethylsulfonyl-1,3,4-thiadiazole-2-carboxylic acid-N,N-tetramethylene-amide] | 20 |
| CCCCNC(=O)c1nnc(S(C)(=O)=O)s1 [5-methylsulfonyl-1,3,4-thiadiazole-2-carboxylic acid-butylamide] | 16 |

System: Tilletia caries
Assay: Treatment of oat seeds infested with Tilletia caries (spore germination)
Type: in vivo
Conditions: 10 g active agent per 100 kg

| SMILES | % activity |
| --- | --- |
| CCS(=O)(=O)c1nnc(C(=O)N2CCCC2)s1 [5-ethylsulfonyl-1,3,4-thiadiazole-2-carboxylic acid-N,N-tetramethylene-amide] | 100% |
| CCCCNC(=O)c1nnc(S(C)(=O)=O)s1 [5-methylsulfonyl-1,3,4-thiadiazole-2-carboxylic acid-butylamide] | 99.2% |

Same assay, conditions: 20 g active agent per 100 kg

| SMILES | % activity |
| --- | --- |
| CCS(=O)(=O)c1nnc(C(=O)N2CCCC2)s1 [5-ethylsulfonyl-1,3,4-thiadiazole-2-carboxylic acid-N,N-tetramethylene-amide] | 100% |
| CCCCNC(=O)c1nnc(S(C)(=O)=O)s1 [5-methylsulfonyl-1,3,4-thiadiazole-2-carboxylic acid-butylamide] | 100% |
| CCCCCCNC(=O)c1nnc([S+]([O-])CCC)s1 (centres unmarked) [5-propylsulfinyl-1,3,4-thiadiazole-2-carboxylic acid-hexylamide] | 100% |
| CCC[S+]([O-])c1nnc(C(=O)NC(C)CC)s1 (centres unmarked) [5-propylsulfinyl-1,3,4-thiadiazole-2-carboxylic acid-sec.-butylamide] | 100% |

Same assay, conditions: 50 g active agent per 100 kg

| SMILES | % activity |
| --- | --- |
| CCS(=O)(=O)c1nnc(C(=O)N2CCCC2)s1 [5-ethylsulfonyl-1,3,4-thiadiazole-2-carboxylic acid-N,N-tetramethylene-amide] | 100% |
| CCCCNC(=O)c1nnc(S(C)(=O)=O)s1 [5-methylsulfonyl-1,3,4-thiadiazole-2-carboxylic acid-butylamide] | 100% |
| CCCCCCNC(=O)c1nnc([S+]([O-])CCC)s1 (centres unmarked) [5-propylsulfinyl-1,3,4-thiadiazole-2-carboxylic acid-hexylamide] | 100% |
| CCC[S+]([O-])c1nnc(C(=O)NC(C)CC)s1 (centres unmarked) [5-propylsulfinyl-1,3,4-thiadiazole-2-carboxylic acid-sec.-butylamide] | 100% |

System: Botrytis cinerea
Assay: Prophylactic leaf treatment of tomato plants against Botrytis cinerea
Type: in vivo
Conditions: concentration of 0.025 of the active agent (unit not given)

| SMILES | % activity |
| --- | --- |
| CCS(=O)(=O)c1nnc(C(=O)N2CCCC2)s1 [5-ethylsulfonyl-1,3,4-thiadiazole-2-carboxylic acid-N,N-tetramethylene-amide] | 75% |
| CCCCNC(=O)c1nnc(S(C)(=O)=O)s1 [5-methylsulfonyl-1,3,4-thiadiazole-2-carboxylic acid-butylamide] | 76% |
| CCCCCCNC(=O)c1nnc([S+]([O-])CCC)s1 (centres unmarked) [5-propylsulfinyl-1,3,4-thiadiazole-2-carboxylic acid-hexylamide] | 80% |
| CCC[S+]([O-])c1nnc(C(=O)NC(C)CC)s1 (centres unmarked) [5-propylsulfinyl-1,3,4-thiadiazole-2-carboxylic acid-sec.-butylamide] | 80% |
